Calls of active or inactive are those of the source. The calls are words filed in the database; no cut-off is given here.
Experiments:
[1] = tested on: A549; experiment: Inhibition of cell migration in PM2.5 induced human A549 assessed as scratch migration length at 20 uM incubated for 0 hr by wound healing assay (reference value: 2.120 +/- 0.132 micrometer); type: functional
[2] = tested on: A549; experiment: Inhibition of PM2.5 induced TGF-beta1 secretion in human A549 cells at 10 uM by ELISA relative to control; type: functional
[3] = tested on: A549; experiment: Downregulation of PM2.5 induced vimentin expression in human A549 cells at 10 to 30 uM by Western blot analysis relative to control; type: functional; conditions: dose 10-30 µM
[4] = tested on: A549; experiment: Downregulation of PM2.5 induced fibronectin mRNA level in human A549 cells at 30 uM by qRT-PCR analysis; type: functional, cell-based
[5] = tested on: A549; experiment: Inhibition of cell invasion in PM2.5 induced human A549 cells assessed as number of cell perforation at 10 uM measured after 24 hrs by Giemsa staining based transwell assay (reference value: 93 +/- 4.04%); type: functional; design: scale not given: the % may be the effect or the level left
[6] = tested on: A549; experiment: Inhibition of cell migration in PM2.5 induced human A549 assessed as scratch migration length at 30 uM incubated for 24 hr by wound healing assay (reference value: 1.757 +/- 0.094 micrometer); type: functional
[7] = tested on: A549; experiment: Inhibition of PM2.5 induced TGF-beta1 secretion in human A549 cells at 20 uM by ELISA relative to control; type: functional
[8] = tested on: A549; experiment: Inhibition of cell migration in PM2.5 induced human A549 assessed as relative migration length at 30 uM incubated for 24 hr by wound healing assay (reference value: 0.363 micrometer); type: functional
[9] = tested on: A549; experiment: Inhibition of cell migration in PM2.5 induced human A549 assessed as relative migration length at 20 uM incubated for 24 hr by wound healing assay (reference value: 0.363 micrometer); type: functional
[10] = tested on: A549; experiment: Cytotoxicity against human A549 cells assessed as reduction in cell viability at 1.5625 to 25 uM incubated for 48 hrs by CCK-8 assay; type: toxicity, cell-based; conditions: a549, 48 h, dose 1.5625-25 µM
[11] = target: T1, Serine/threonine-protein kinase AKT (Homo sapiens) (UniProt P31751+Q9Y243+P31749); experiment: Inhibition of PM2.5 induced Akt phosphorylation upregulation in human A549 cells at 30 uM by Western blot analysis relative to control; type: cell-based
T1 sequence (P31749 whole entry, looked up): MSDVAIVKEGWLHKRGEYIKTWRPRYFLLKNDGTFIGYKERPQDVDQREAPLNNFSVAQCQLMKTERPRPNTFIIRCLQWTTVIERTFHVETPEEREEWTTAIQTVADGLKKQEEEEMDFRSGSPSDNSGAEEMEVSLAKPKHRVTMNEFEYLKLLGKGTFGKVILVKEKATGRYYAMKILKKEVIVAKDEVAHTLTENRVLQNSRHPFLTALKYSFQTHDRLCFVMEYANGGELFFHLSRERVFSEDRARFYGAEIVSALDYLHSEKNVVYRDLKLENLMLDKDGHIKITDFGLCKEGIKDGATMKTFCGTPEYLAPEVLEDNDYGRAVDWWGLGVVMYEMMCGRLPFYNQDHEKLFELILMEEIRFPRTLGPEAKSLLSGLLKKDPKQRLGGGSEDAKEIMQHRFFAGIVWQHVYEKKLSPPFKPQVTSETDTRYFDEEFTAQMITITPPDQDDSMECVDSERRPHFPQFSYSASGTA
T1 sequence (P31751 whole entry, looked up): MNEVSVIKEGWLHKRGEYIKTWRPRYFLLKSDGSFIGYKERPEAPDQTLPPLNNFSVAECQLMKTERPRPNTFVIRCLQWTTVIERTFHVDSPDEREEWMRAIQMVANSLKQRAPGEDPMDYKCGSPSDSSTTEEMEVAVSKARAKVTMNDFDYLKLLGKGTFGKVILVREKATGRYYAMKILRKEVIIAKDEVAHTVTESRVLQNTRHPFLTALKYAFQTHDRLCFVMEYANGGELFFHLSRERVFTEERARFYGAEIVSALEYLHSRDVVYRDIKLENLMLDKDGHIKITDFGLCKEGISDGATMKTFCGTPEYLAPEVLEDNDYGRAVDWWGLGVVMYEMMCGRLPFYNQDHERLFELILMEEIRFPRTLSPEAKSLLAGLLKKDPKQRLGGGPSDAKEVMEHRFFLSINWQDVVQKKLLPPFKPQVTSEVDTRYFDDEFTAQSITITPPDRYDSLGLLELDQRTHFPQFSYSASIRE
T1 sequence (Q9Y243 whole entry, looked up): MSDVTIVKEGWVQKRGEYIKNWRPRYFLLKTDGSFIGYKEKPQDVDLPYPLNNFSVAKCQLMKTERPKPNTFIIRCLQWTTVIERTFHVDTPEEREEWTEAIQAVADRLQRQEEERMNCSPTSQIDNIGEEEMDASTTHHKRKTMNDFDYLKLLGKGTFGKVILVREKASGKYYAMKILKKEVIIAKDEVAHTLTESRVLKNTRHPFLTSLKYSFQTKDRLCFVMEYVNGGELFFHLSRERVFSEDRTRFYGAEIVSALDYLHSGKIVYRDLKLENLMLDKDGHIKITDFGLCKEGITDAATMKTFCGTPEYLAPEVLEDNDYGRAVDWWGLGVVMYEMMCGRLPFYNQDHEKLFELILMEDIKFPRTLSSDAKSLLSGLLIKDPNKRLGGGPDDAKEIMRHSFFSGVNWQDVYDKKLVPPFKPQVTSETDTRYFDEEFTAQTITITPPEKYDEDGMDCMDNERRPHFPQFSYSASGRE

[12] = tested on: A549; experiment: Inhibition of cell migration in PM2.5 induced human A549 at 30 uM incubated for 24 hrs by wound healing assay relative to control; type: functional
[13] = target: T1, Serine/threonine-protein kinase AKT (Homo sapiens); experiment: Inhibition of PM2.5 induced Akt phosphorylation upregulation in human A549 cells at 20 uM by Western blot analysis relative to control; type: cell-based
[14] = tested on: A549; experiment: Inhibition of PM2.5 induced PI3K/Akt activation assessed as inhibition of Twist expression in human A549 cells at 10 to 20 uM; type: cell-based; conditions: dose 10-20 µM
[15] = tested on: A549; experiment: Inhibition of PM2.5 induced PI3K/Akt activation assessed as inhibition of Snail expression in human A549 cells at 10 to 20 uM; type: cell-based; conditions: dose 10-20 µM
[16] = tested on: A549; experiment: Inhibition of cell invasion in PM2.5 induced human A549 cells assessed as number of cell perforation at 20 uM measured after 24 hrs by Giemsa staining based transwell assay (reference value: 93 +/- 4.04%); type: functional; design: scale not given: the % may be the effect or the level left
[17] = tested on: A549; experiment: Downregulation of PM2.5 induced vimentin mRNA expression in human A549 cells at 10 uM by qRT-PCR analysis relative to control; type: functional
[18] = tested on: A549; experiment: Inhibition of cell migration in PM2.5 induced human A549 assessed as relative migration length at 10 uM incubated for 24 hr by wound healing assay (reference value: 0.363 micrometer); type: functional
[19] = tested on: A549; experiment: Inhibition of PM2.5 induced PI3K expression in human A549 cells at 10 to 30 uM by qRT-PCR analysis; type: functional, cell-based; conditions: dose 10-30 µM
[20] = tested on: A549; experiment: Downregulation of PM2.5 induced MMP-9 activation in human A549 cells at 10 uM by ELISA; type: functional, cell-based
[21] = tested on: A549; experiment: Inhibition of cell migration in PM2.5 induced human A549 assessed as relative migration rate at 10 uM incubated for 24 hr by wound healing assay (reference value: 129%); type: functional; design: scale not given: the % may be the effect or the level left
[22] = tested on: A549; experiment: Inhibition of PM2.5 induced TGF-beta1 secretion in human A549 cells at 30 uM by ELISA relative to control; type: functional
[23] = tested on: A549; experiment: Upregulation of PM2.5 induced mRNA expression in human A549 cells at 20 uM by qRT-PCR analysis; type: functional, cell-based
[24] = tested on: A549; experiment: Downregulation of PM2.5 induced fibronectin mRNA level in human A549 cells at 10 uM by qRT-PCR analysis; type: functional, cell-based
[25] = tested on: A549; experiment: Cytotoxicity against human A549 cells assessed as reduction in cell viability at 200 uM incubated for 48 hrs by CCK-8 assay relative to control; type: toxicity, cell-based; conditions: a549, 48 h
[26] = tested on: A549; experiment: Downregulation of PM2.5 induced fibronectin mRNA level in human A549 cells at 20 uM by qRT-PCR analysis; type: functional, cell-based
[27] = tested on: A549; experiment: Downregulation of PM2.5 induced MMP-2 activation in human A549 cells at 10 uM by ELISA; type: functional, cell-based
[28] = tested on: A549; experiment: Downregulation of PM2.5 induced vimentin mRNA expression in human A549 cells at 30 uM by qRT-PCR analysis relative to control; type: functional
[29] = tested on: A549; experiment: Inhibition of cell invasion in PM2.5 induced human A549 cells assessed as number of cell perforation at 30 uM measured after 24 hrs by Giemsa staining based transwell assay (reference value: 93 +/- 4.04%); type: functional; design: scale not given: the % may be the effect or the level left
[30] = tested on: A549; experiment: Inhibition of cell migration in PM2.5 induced human A549 assessed as relative migration rate at 20 uM incubated for 24 hr by wound healing assay (reference value: 129%); type: functional; design: scale not given: the % may be the effect or the level left
[31] = target: T1, Serine/threonine-protein kinase AKT (Homo sapiens); experiment: Inhibition of PM2.5 induced Akt phosphorylation upregulation in human A549 cells at 10 uM by Western blot analysis relative to control; type: cell-based
[32] = tested on: A549; experiment: Inhibition of cell migration in PM2.5 induced human A549 assessed as scratch migration length at 10 uM incubated for 0 hr by wound healing assay (reference value: 2.120 +/- 0.132 micrometer); type: functional
[33] = tested on: A549; experiment: Inhibition of PM2.5 induced PI3K/Akt activation assessed as inhibition of Slug expression in human A549 cells at 10 to 20 uM; type: cell-based; conditions: dose 10-20 µM
[34] = tested on: A549; experiment: Inhibition of cell migration in PM2.5 induced human A549 assessed as scratch migration length at 30 uM incubated for 0 hr by wound healing assay (reference value: 2.120 +/- 0.132 micrometer); type: functional
[35] = tested on: A549; experiment: Protection against PM2.5 induced human A549 cells injury assessed as reduction in PM2.5 induced cell proliferation inhibition at 10 to 30 uM measured at 24 hrs by CCK-8 analysis; type: functional, cell-based; conditions: dose 10-30 µM
[36] = tested on: A549; experiment: Inhibition of PM2.5 induced Akt phosphorylation in human A549 cells at 10 to 30 uM […]; type: functional, cell-based; conditions: dose 10-30 µM
[37] = tested on: A549; experiment: Reversal of PM2.5 induced EMT in human A549 cells at 10 uM by ELISA; type: functional, cell-based
[38] = tested on: A549; experiment: Downregulation of PM2.5 induced N-cadherin mRNA level in human A549 cells at 20 uM by qRT-PCR analysis relative to control; type: functional
[39] = tested on: A549; experiment: Downregulation of PM2.5 induced CXCL12 expression in human A549 cells at 10 uM by ELISA relative to control; type: functional
[40] = tested on: A549; experiment: Inhibition of cell migration in PM2.5 induced human A549 assessed as scratch migration length at 20 uM incubated for 24 hr by wound healing assay (reference value: 1.757 +/- 0.094 micrometer); type: functional
[41] = tested on: A549; experiment: Inhibition of cell invasion in PM2.5 induced human A549 cells assessed as reduction in cell invasiveness at 30 uM measured after 24 hrs by Giemsa staining based transwell assay relative to control; type: functional; design: scale not given: the % may be the effect or the level left
[42] = tested on: A549; experiment: Inhibition of cell invasion in PM2.5 induced human A549 cells assessed as reduction in cell invasiveness at 20 uM measured after 24 hrs by Giemsa staining based transwell assay relative to control; type: functional; design: scale not given: the % may be the effect or the level left
[43] = tested on: A549; experiment: Upregulation of PM2.5 induced E-cadherin mRNA expression in human A549 cells at 10 uM by qRT-PCR analysis; type: functional, cell-based
[44] = tested on: A549; experiment: Upregulation of PM2.5 induced E-cadherin expression in human A549 cells at 30 uM by Western blot analysis; type: functional, cell-based
[45] = tested on: A549; experiment: Inhibition of cell migration in PM2.5 induced human A549 assessed as scratch migration length at 10 uM incubated for 24 hr by wound healing assay (reference value: 1.757 +/- 0.094 micrometer); type: functional
[46] = tested on: A549; experiment: Downregulation of PM2.5 induced vimentin mRNA expression in human A549 cells at 20 uM by qRT-PCR analysis relative to control; type: functional
[47] = tested on: A549; experiment: Inhibition of PM2.5 induced PI3K upregulation in human A549 cells at 30 uM by Western blot analysis relative to control; type: functional
[48] = tested on: A549; experiment: Downregulation of PM2.5 induced N-cadherin mRNA level in human A549 cells at 10 uM by qRT-PCR analysis relative to control; type: functional
[49] = tested on: A549; experiment: Protection against PM2.5 induced human A549 cells morphological change assessed as reduction in number of mesenchymal morphogenetic cells at 10 to 30 uM measured after 48 hrs by microscopic analysis; type: functional, cell-based; conditions: dose 10-30 µM
[50] = tested on: A549; experiment: Inhibition of PM2.5 induced PI3K upregulation in human A549 cells at 20 uM by Western blot analysis relative to control; type: functional
[51] = tested on: A549; experiment: Inhibition of cell migration in PM2.5 induced human A549 assessed as relative migration rate at 30 uM incubated for 24 hr by wound healing assay (reference value: 129%); type: functional; design: scale not given: the % may be the effect or the level left
[52] = tested on: A549; experiment: Downregulation of PM2.5 induced CXCL12 expression in human A549 cells at 20 uM by ELISA relative to control; type: functional

## COc1ccc(-c2coc3cc(O)cc(O)c3c2=O)cc1 [BIOCHANIN]
[1]
  Activity: 1.932 um
[2]
  inhibition at 10 µM: 16.2%
[3]
  Activity: 45%
[4]
  Activity: Active
[5]
  Activity: 92%
[6]
  Activity: 1.552 um
[7]
  inhibition at 20 µM: 13.1%
[8]
  Activity: 0.302 um
[9]
  Activity: 0.481 um
[10]
  Activity: Non-Toxic
[11]
  inhibition: 17.1%
[12]
  inhibition at 30 µM: 22%
[13]
  inhibition: 73.6%
[14]
  inhibition: Active
[15]
  inhibition: Active
[16]
  Activity: 61.3%
[17]
  Activity: 76%
[18]
  Activity: 0.405 um
[19]
  inhibition: Active
[20]
  Activity: Active
[21]
  Activity: 144%
[22]
  inhibition at 30 µM: 24.8%
[23]
  Activity: Active
[24]
  Activity: Active
[25]
  Activity: 19%
[26]
  Activity: Active
[27]
  Activity: Active
[28]
  Activity: 78%
[29]
  Activity: 52%
[30]
  Activity: 171%
[31]
  inhibition: 30%
[32]
  Activity: 1.973 um
[33]
  inhibition: Active
[34]
  Activity: 1.854 um
[35]
  Activity: Active
[36]
  inhibition: Active
[37]
  Activity: Active
[38]
  Activity: 79%
[39]
  Activity: 17%
[40]
  Activity: 1.451 um
[41]
  Activity: 44.1%
[42]
  Activity: 34.09%
[43]
  Activity: Active
[44]
  Activity: Active
[45]
  Activity: 1.568 um
[46]
  Activity: 48%
[47]
  inhibition at 30 µM: 63.3%
[48]
  Activity: 67%
[49]
  Activity: Active
[50]
  inhibition at 20 µM: 50%
[51]
  Activity: 107%
[52]
  Activity: 20%
